In ChEMBL document CHEMBL1201862, “PubChem BioAssay data set” (2004):
The source made the active and inactive calls. Rule as the data show it, for most assays here: actives have a measured AC50 and inactives only a lower limit.

How the values were obtained:
[1] = target: T1, Methionyl-tRNA synthetase, putative (Trypanosoma brucei brucei, UniProt Q38C91); type: functional, Trypanosoma brucei brucei strain 927/4 GUTat10.1
[2] = target: T1, Methionyl-tRNA synthetase, putative; type: functional, Trypanosoma brucei brucei strain 927/4 GUTat10.1; remark: listed apart in the source
[3] = Late stage counterscreen for inhibitors of Trypanosoma brucei methionyl tRNA synthetase (MetRS): Luminescence-based cell-based high throughput dose response assay to identify compounds that are cytotoxic to Jurkat human T lymphocyte cells.; type: functional
[4] = Counterscreen for inhibitors of Trypanosoma brucei methionyl tRNA synthetase (MetRS): Luminescence-based cell-based high throughput dose response assay to identify compounds that are cytotoxic to Jurkat human T lymphocyte cells.; type: functional
[5] = Late stage assay provider results from the probe development effort to identify inhibitors of the Plasmodium falciparum M18 Aspartyl Aminopeptidase (M18AAP): radiolabel-based cell-based dose response assay to identify compounds that inhibit P. falciparum growth in RBCs, Set 2..; type: functional
[6] = Shn3 3'UTR reporter signal decrease – cell-based, Clone20 osteoblasts, firefly luciferase, cherry-pick, set 2, Schnurri-3 inhibitor project, dose response (AID 720490); type: functional;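 also: actives lower the luminescence signal as inhibitors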
[7] = non-specific 3'UTR reporter inhibition in Clone20-Shn3RL – cell-based, Renilla luciferase, cherry-picked, counter-screen for Shn3 inhibitor project, dose response (AID 624133); type: functional
[8] = reduction of Shn3 3'UTR-driven luciferase in osteoblasts – cell-based, Clone20 osteoblasts, firefly luciferase, cherry-picked, dose response (AID 624132); type: functional;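 also: firefly luciferase luminescence from reporter carrying the Shn3 3'UTR in osteoblasts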
cells = details: HEK293
[9] = OVCAR8 cell viability loss – plate reader, dry powder samples, PAX8 project, dose response (AID 743197); type: functional, cell-based; details: OVCAR-8
[10] = OVCAR-3 cell viability loss – plate reader, dry powder samples, PAX8 inhibitor project, dose response (AID 743044); type: functional, cell-based
Paired box protein Pax-8 = Paired box protein Pax-8 (Homo sapiens, UniProt Q06710); assay: PAX8 transcriptional activity inhibition in RMG-I – RMG-I cells, luciferase, cherry-pick, dose response (AID 687027); type: functional, cell-based;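 also: luciferase reporter driven by Pax8 target thyroperoxidase promoter measured by SteadyGlo luminescence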
[11] = viability loss in HEK293 cells – cell-based, plate reader, cherry-picked samples, cytotoxicity control, dose response (AID 743446); type: functional
[12] = toxicity toward immortalized ovarian surface epithelium – cell-based, plate reader, dry powder samples, cytotoxicity control for PAX8 inhibitor project, dose response (AID 743045); type: functional
[13] = blockade of melanocortin 4 receptor signaling – cell-based, plate reader, cherry pick, counter-screen for LGR2 antagonist project, dose response (AID 743444); type: functional;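 also: transfected HEK 293 cells stimulated with alpha-MSH peptide; potency of inhibitors of the alpha-MSH evoked signal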
[14] = P. falciparum Dd2 growth inhibitors, dose response, SYBR Green, cherry-picked samples (AID 1159567); type: functional, cell-based
[15] = A549 cell cytotoxicity, dose response, cytotoxicity control, plate reader, cherry-pick, antagonist series (AID 743412); type: functional, cell-based
[16] = IGROV1 cell killing – plate reader, dry powder samples, PAX8 inhibitor project, dose response (AID 743043); type: functional, cell-based; details: IGROV-1
[17] = toxicity toward HepG2 liver cells – cell-based, plate reader, cherry-pick, antagonist series, cytotoxicity control, dose response (AID 743416); type: functional
[18] = blockers of bursicon-stimulated LGR2 cAMP reporter – cell-based, HEK293, CRE-luciferase reporter, cherry pick, set 2, dose response (AID 743343); type: functional;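 also: transfected cells were stimulated with diluted bursicon conditioned medium after compound addition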
[19] = blockers of FN fibrillogenesis by fibroblasts – AH1F cells, Alexa488-FN fluorescence, cherry-picks, dose response (AID 1035475); type: functional, cell-based
[20] = toxicity to human hepatoma HepG2 cells – cell-based, cherry-picked samples, cytotoxicity control, dose response (AID 1159577); type: functional
[21] = viability loss in HepG2 hepatoma cells – cell-based, cherry-picks, set 5, cytotoxicity control, dose response (AID 1053118); type: functional
[22] = viability loss in HEK293 kidney cells – cell-based, cherry-picks, set 5, cytotoxicity control, dose response (AID 1053117); type: functional
[23] = viability loss in A549 lung cancer cells – cell-based, cherry-picks, […], cytotoxicity control, dose response (AID 1053119); type: functional

T1 sequence (Q38C91 whole entry): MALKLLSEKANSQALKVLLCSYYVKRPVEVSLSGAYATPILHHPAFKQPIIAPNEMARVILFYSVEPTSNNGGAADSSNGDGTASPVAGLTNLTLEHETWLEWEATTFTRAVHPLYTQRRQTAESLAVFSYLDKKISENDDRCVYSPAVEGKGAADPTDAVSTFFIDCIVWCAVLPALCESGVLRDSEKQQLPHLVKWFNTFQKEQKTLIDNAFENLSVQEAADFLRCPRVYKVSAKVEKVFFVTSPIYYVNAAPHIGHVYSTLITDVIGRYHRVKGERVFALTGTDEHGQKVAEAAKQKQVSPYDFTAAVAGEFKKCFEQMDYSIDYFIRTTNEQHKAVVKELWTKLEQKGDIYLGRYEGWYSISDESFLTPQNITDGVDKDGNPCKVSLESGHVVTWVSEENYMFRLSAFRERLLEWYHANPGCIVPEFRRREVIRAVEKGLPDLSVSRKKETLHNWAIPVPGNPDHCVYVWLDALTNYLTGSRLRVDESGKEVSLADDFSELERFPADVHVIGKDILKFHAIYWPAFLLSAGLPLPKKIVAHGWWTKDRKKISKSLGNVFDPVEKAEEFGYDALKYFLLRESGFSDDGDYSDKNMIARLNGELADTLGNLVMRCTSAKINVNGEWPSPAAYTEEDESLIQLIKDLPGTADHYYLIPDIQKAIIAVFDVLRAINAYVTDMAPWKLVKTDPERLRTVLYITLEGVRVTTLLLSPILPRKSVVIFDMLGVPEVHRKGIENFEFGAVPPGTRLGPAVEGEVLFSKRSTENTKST
Paired box protein Pax-8, sequence (Q06710 whole entry): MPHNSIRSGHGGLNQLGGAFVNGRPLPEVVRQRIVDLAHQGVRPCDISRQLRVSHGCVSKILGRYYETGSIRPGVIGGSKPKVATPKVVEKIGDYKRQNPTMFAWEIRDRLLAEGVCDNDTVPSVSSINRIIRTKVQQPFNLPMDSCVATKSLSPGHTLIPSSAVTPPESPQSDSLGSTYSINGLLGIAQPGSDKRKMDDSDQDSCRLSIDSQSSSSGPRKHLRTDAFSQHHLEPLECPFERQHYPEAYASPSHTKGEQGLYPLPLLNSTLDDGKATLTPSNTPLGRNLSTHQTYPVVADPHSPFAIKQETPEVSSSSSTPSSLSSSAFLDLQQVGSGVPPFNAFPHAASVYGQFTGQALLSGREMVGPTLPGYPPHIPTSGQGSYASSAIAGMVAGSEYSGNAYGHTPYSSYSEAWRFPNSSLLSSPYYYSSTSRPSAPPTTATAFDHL

O=C(Cn1cc(C(=O)C(=O)N2CCOCC2)c2ccccc21)Nc1cccc(C(F)(F)F)c1
IC50 [1]: 0.205 µM (active)
IC50 [2]: 0.352 µM (active)
IC50 [3]: > 83.3 µM (inactive)
IC50 [4]: 77.5 µM (inactive)

Oc1ccc(CCCNc2c3ccccc3nc3ccccc23)cc1O
IC50 [5]: 3.7 µM (active)

O=C(COC(=O)c1[nH]nc2ccccc12)Nc1ccc(S(=O)(=O)N2CCCC2)cc1
AC50 [6]: 31.8 µM (active)
AC50 [7]: 36.1 µM (active)
AC50 [8]: 5.33 µM (active)

COc1ccc(CCNC(=O)CSc2cn(Cc3cccc(C)c3)c3ccccc23)cc1OC
AC50 (cells): > 52 µM (inactive)

Cn1cnc(S(=O)(=O)N2C[C@@H]3N[C@H](C2)[C@@H]3c2ccc(-c3ccccc3F)cc2)c1
AC50 [9]: 24.5 µM (active)
AC50 [10]: 22 µM (active)
AC50 (Paired box protein Pax-8): 4.26 µM (active)
AC50 [11]: > 52 µM (inactive)
AC50 [12]: 25.9 µM (active)
AC50 [13]: 6.25 µM (active)
AC50 [14]: 3.72 µM (active)
AC50 [15]: 11 µM (active)
AC50 [16]: 27.1 µM (active)
AC50 [17]: 28.2 µM (active)
AC50 [18]: 18.9 µM (active)

CO[C@H]1CN(C)C(=O)c2ccc(NC(=O)c3ccc(-c4ccccc4)cc3)cc2OC[C@@H](C)NC[C@@H]1C
AC50 [19]: > 70 µM (inactive)
AC50 [20]: 7.74 µM (active)
AC50 [21]: 10.9 µM (active)
AC50 [14]: 2.02 µM (active)
AC50 [22]: 16.3 µM (active)
AC50 [23]: 13.4 µM (active)
